Experimental data reported in publication PMC5349910, “Discovery of BPR1K871, a quinazoline based, multi-kinase inhibitor for the treatment of AML and solid tumors: Rational design, synthesis, in vitro and in vivo evaluation” (Oncotarget, 2016).
Read-outs that look alike come from different tables or passages of the source. One block for each compound: values may come before it.

Assays:
[1] = system: MV4-11 cells; experiment: MTS cell viability assay, MV4-11; type: cell-based, human; details: Homo sapiens, MV4-11, 72 h, read-out: MV4-11 EC50
Procedure: (§1) The MTS cell viability assay was conducted as previously described. The MOLM-13 human leukemia cell line was obtained from the German Resource Centre for Biological Material (DSMZ, Braunschweig, Germany); the MV4-11 cell line was purchased from the American Type Culture Collection (ATCC, Manassas, VA, USA). […] To determine cell viability after drug treatment, assay for MOLM-13 and MV4-11 was performed by seeding 10000 cells per well in a 96-well culture plate. […] After 16 h, cells were then treated with vehicle or various concentrations of compound in medium for 72 h. Viable cells were quantified using the MTS method (Promega, Madison, WI, USA) according to the manufacturer's recommended protocol. Results were determined by measuring the absorbance at 490 nm using a plate reader (Victor2; PerkinElmer, Shelton, CT, USA).

[2] = system: K562 cells; experiment: Anti-proliferative activity, K562; type: cell-based; details: Homo sapiens
[3] = system: H1975 cells; experiment: Anti-proliferative activity, H1975; type: cell-based; details: Homo sapiens
[4] = system: CL-97 cells; experiment: Anti-proliferative activity, CL-97; type: cell-based, human
[5] = system: HCC827 cells; experiment: Anti-proliferative activity, HCC827; type: cell-based; details: Homo sapiens
[6] = system: RS4-11 cells; experiment: Anti-proliferative activity, RS4-11; type: cell-based; details: Homo sapiens
[7] = system: H2228 cells; experiment: Anti-proliferative activity, H2228; type: cell-based; details: Homo sapiens
[8] = system: U937 cells; experiment: Anti-proliferative activity, U937; type: cell-based; details: Homo sapiens
[9] = system: HCT-116 cells; experiment: Anti-proliferative activity, HCT-116; type: cell-based, human
[10] = system: MOLM-13 cells; experiment: MTS cell viability assay, MOLM-13; type: cell-based, human; details: Homo sapiens, MOLM-13, 72 h, read-out: MOLM-13 EC50
Procedure: as §1

[11] = target: T1, AURKA (Homo sapiens, UniProt O14965); design: method as in PMID 20550212, PMID 23172777, PMID 24665000; details: previously reported leads 1, 2, 3; cited from earlier work
T1 construct: recombinant GST-AURKA (residues Ser123-Ser401) containing the kinase domain; GST (N); made in house; host or cells: Sf9 insect cells
T1 sequence (O14965 123-401): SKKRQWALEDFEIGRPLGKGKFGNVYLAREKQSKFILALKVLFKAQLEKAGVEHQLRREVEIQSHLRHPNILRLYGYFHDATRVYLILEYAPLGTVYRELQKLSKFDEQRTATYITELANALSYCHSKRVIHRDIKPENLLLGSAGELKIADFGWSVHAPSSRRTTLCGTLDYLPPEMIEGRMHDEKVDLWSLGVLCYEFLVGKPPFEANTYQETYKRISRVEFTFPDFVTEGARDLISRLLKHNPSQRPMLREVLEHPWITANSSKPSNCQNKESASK

[12] = target: T2, FLT3 (Homo sapiens, UniProt P36888); design: method as in PMID 20550212, PMID 23172777, PMID 24665000; details: previously reported leads 1, 2, 3; cited from earlier work
T2 construct: FLT3 kinase catalytic domain (residues Tyr567-Ser993); made in house; host or cells: Sf9 insect cells (baculovirus, pBac-PAK8-GST-FLT3-KD)
T2 sequence (P36888 567-993): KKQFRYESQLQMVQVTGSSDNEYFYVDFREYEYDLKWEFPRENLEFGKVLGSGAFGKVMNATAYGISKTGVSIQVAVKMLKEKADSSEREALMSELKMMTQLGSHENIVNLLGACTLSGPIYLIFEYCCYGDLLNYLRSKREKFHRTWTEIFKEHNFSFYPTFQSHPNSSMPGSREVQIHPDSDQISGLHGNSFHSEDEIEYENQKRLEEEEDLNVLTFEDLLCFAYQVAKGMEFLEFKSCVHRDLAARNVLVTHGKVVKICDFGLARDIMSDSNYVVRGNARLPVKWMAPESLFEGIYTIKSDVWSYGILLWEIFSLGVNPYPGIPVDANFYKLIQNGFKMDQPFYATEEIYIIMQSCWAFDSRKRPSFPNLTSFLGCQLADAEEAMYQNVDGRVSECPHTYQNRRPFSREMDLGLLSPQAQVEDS

[13] = system: Mia-PaCa2 cells; experiment: Anti-proliferative activity, Mia-PaCa2; type: cell-based, human; details: Homo sapiens, MIA PaCa-2, Human Pancreatic Cancer; supplement values ± SEM
[14] = system: Colo 205 cells; experiment: Anti-proliferative activity, Colo 205; type: cell-based; details: Homo sapiens, COLO 205, Human Colon Cancer
[15] = MTS, 72 h, AML-FLT3-ITD (homozygous), supplement values ± SEM
[16] = HCT-116, Human Colon Cancer, supplement values ± SEM, read-out: HCT-116 EC50
[17] = MTS, 72 h, AML-FLT3-ITD (heterozygous), supplement values ± SEM

SMILES: CCN(CCCOc1ccc2c(Nc3cc(CC(=O)Nc4cccc(F)c4)n[nH]3)ncnc2c1)CCOP(=O)(O)O [Barasertib]
- EC50 [1]: 17 nM
- EC50 ([2]; K562, read-out: K562 EC50): > 10000 nM
- EC50 ([3]; NCI-H1975, read-out: H1975 EC50): 390 nM
- EC50 ([4]; Homo sapiens, CL97, read-out: CL-97 EC50): 454 nM
- EC50 ([5]; HCC827, read-out: HCC827 EC50): 127 nM
- EC50 ([6]; RS4-11, read-out: RS4-11 EC50): 11 nM
- EC50 ([7]; NCI-H2228, read-out: H2228 EC50): 340 nM
- EC50 ([8]; U-937, read-out: U937 EC50): > 10000 nM
- EC50 ([9]; Homo sapiens, HCT-116, read-out: HCT-116 EC50): 67 nM
- EC50 [10]: 42 nM

SMILES: O=C(Nc1cccc(Cl)c1)Nc1ncc(CCNc2ncnc3oc(-c4ccccc4)c(-c4ccccc4)c23)s1 [Compound 3]
- IC50 [11]: 43 nM
- IC50 [12]: 322 nM

- EC50 [1, 15]: 82 nM
- EC50 ([2]; K562, CML-Bcr-Abl FLT3-negative, supplement values ± SEM, read-out: K562 EC50): > 20000 nM
- EC50 ([3]; NCI-H1975, NSCLC-EGFR LR/TM, supplement values ± SEM, read-out: H1975 EC50): 8850 nM
- EC50 ([5]; HCC827, NSCLC-EGFR L858R, supplement values ± SEM, read-out: HCC827 EC50): 6180 nM
- EC50 ([6]; RS4-11, ALL-wt-FLT3 (homozygous), supplement values ± SEM, read-out: RS4-11 EC50): 9200 nM
- EC50 ([7]; NCI-H2228, NSCLC-ALK, supplement values ± SEM, read-out: H2228 EC50): 8780 nM
- EC50 ([8]; U-937, AML-FLT3-negative, supplement values ± SEM, read-out: U937 EC50): > 18000 nM
- EC50 [13]: 16400 nM
- EC50 [9, 16]: 8070 nM
- EC50 [10, 17]: 38 nM
SMILES: Cc1ccc(F)c(NC(=O)Nc2ccc(-c3cccc4[nH]nc(N)c34)cc2)c1 [Linifanib]
- EC50 ([4]; CL97, Human Lung Cancer, supplement values ± SEM, read-out: CL-97 EC50): > 20000 nM

- EC50 [1, 15]: 71 nM
- EC50 [14]: 86 nM
- EC50 [9, 16]: 97 nM
- EC50 [10, 17]: 69 nM
SMILES: Cc1cc(Nc2cc(N3CCN(C)CC3)nc(Sc3ccc(NC(=O)C4CC4)cc3)n2)[nH]n1 [VX-680, reference compound]
